These results are taken from US20230310427A1, “NEW THERAPEUTIC USE OF RILPIVIRINE” (UNIVERSITY OF SOUTH AUSTRALIA, priority 2020, published 2023).

The test system of assay [1] is PC3 cells. The assay can be described thus: Cell cycle analysis (flow cytometry). Type of assay: cell-based. Conditions: 48 hour treatment. As to the method:
(§1) The effect of Rilpivirine on cell cycle distribution in different cancer cell lines was evaluated by flow cytometric analysis. Briefly, cells were seeded in 6-well plates at a density of 6 × 10^4 cells/well. All plates were incubated overnight at 37° C. in a 5% CO2 incubator. Following the incubation, the test compounds (Rilpivirine (Ril) and comparators, Alisertib (Ali; a known Aurora A inhibitor) and Etravirine (Etra; 4-[[6-amino-5-bromo-2-[(4-cyanophenyl)amino]-4-pyrimidinyl]oxy]-3,5-dimethylbenzonitrile - a structurally similar NNRTI drug compound sold under the brand name Intelence® (Janssen Therapeutics)) were added to individual wells and the plates were incubated at same condition for 24 h, 48 h or 72 h. Subsequently, the medium was removed from the wells and transferred into fluorescence-activated cell sorting (FACS) tubes. The adherent cells remaining were trypsinised, re-suspended in media and transferred into the FACS tubes. Cells were centrifuged, fixed with cold 70% ethanol for 15 min and pelleted. The pelleted cells were then re-suspended in 200 µL propidium iodide (PI) solution (50 µg/mL propidium iodide, 0.1 mg/mL ribonuclease A, 0.1% sodium citrate, 0.1% triton X-100) and incubated in the dark for 1.5 h at room temperature. Following the incubation, 200 µL PBS was added. Samples were assessed using a flow cytometer (Cytoflex; Beckman Coulter Inc, Brea, CA, United States of America) and data were analysed using the Cytexpert software.

Assay [2] deals with T47D cells. The assay can be described thus: Cell cycle analysis (flow cytometry). Conditions: 48-hour treatment. Type of assay: cell-based. As to the method: as §1
The target of assay [3] is T1, Aurora B kinase (Homo sapiens, UniProt Q96GD4).
T1 construct: purchased Promega (ADP-Glo kits) or Reaction Biology Corporation / Eurofins discovery services (external)
The assay can be described thus: Kinase assay. The class given is biochemical. Conditions: kinase inhibition profiling (FIG. 2), concentration not given. How it is done:
(§2) The ability of compounds to inhibit kinases was measured using ADP-Glo^Tm assay kits (Promega, Madison, WI, United States of America) or externally using radioisotope based assays (Reaction Biology Corporation, Malvern, PA, United States of America and Eurofins discovery services, France). The ADP-Glo assay was performed as reported previously (Basnet SK et al., Mol Pharmacol 88(5):935-948, 2015).The assay plate was read for luminescence using Envision multi-label plate reader (PerkinElmer, Waltham, MA, United States of America). Half-maximal inhibition (IC50) values were determined from a plot of percent residual activity versus concentration of test compounds using GraphPad Prism software. Ki values were calculated from IC50 values using the Cheng-Prusoff equation: Ki= IC50/ [1 + ([ATP]/Km ATP)], where [ATP] is the ATP concentration used for the IC50 determination and Km ATP for each kinase is determined from an individual experiment.

The target of assay [4] is T2, Aurora A kinase (Homo sapiens, UniProt O14965).
T2 construct: purchased Promega (ADP-Glo kits) or Reaction Biology Corporation / Eurofins discovery services (external)
T2 sequence (O14965 1-403): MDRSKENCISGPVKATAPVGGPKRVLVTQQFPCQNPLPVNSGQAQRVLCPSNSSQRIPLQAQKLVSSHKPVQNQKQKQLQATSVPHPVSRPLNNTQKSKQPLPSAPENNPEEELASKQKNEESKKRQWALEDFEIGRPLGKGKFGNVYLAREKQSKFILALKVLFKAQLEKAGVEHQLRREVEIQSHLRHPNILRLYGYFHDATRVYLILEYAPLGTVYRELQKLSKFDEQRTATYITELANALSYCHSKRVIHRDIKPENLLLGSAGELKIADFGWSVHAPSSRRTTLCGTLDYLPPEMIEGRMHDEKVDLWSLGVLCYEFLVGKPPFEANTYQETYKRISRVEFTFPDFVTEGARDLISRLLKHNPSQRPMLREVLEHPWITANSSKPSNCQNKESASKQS
The experiment in a line: Kinase assay. The class given is biochemical. Conditions: kinase inhibition profiling (FIG. 2), concentration not given. How it is done: as §2

T1 sequence (Q96GD4 whole entry): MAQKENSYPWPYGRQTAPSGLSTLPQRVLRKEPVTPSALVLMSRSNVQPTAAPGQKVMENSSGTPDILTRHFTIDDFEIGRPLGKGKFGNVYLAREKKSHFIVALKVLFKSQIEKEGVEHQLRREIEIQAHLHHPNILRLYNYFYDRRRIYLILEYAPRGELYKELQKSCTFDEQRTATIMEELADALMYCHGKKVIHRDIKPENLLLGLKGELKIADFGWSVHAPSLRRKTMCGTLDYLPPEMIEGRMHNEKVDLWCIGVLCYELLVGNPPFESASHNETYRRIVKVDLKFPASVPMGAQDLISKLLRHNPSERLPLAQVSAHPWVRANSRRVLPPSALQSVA

Consider `COc1cc(Nc2ncc3c(n2)-c2ccc(Cl)cc2C(c2c(F)cccc2OC)=NC3)ccc1C(=O)O` [Alisertib], for which the cell cycle arrest entry in assay [1] (p53 mutant) was “induce G2/M arrest”; in assay [2] (p53 mutant), “arrest T47D breast cancer cells in G2/M phase”.

Turning to `Cc1cc(C#N)cc(C)c1Oc1nc(Nc2ccc(C#N)cc2)nc(N)c1Br` [Etravirine, 4-[[6-amino-5-bromo-2-[(4-cyanophenyl)amino]-4-pyrimidinyl]oxy]-3,5-dimethylbenzonitrile], the cell cycle arrest result in assay [1] (10 µM) is “did not induce G2/M arrest”; in assay [2] (10 µM) it was “no G2/M arrest”. The “inhibitory activity against Aurora B” value in assay [3] is on record as “no inhibitory activity”. Also, the “inhibitory activity against Aurora A” value in assay [4] is listed as “no inhibitory activity”.
